Earlier results on one molecule are cited in US9763453B2, “Antimicrobial coating for inhibition of bacterial adhesion and biofilm formation” (Bacterin International, Inc., priority 2004, dated 2017).

The conditions of this series: aqueous solutions.

`[Ag][I]` [silver iodide]: the Ksp is ~10^−18.
